Measured values taken from patent US8217035B2, “Pyrimidine derivatives used as PI-3-kinase inhibitors” (Novartis AG, priority 2006, dated 2012).
Like-named read-outs stand apart in the source and are kept apart here.

Target: PI3 kinase alpha (Homo sapiens, UniProt P42336)
Assay: PI3K ATP depletion assay (Biological Method 1, Assay 3; KinaseGlo luminescence)
Assay type: biochemical
Protocol: The PI3 kinase alpha IC50 values shown in Table 1 were determined according to the ATP depletion assay as disclosed herein in Biological Method 1.
Assay 3: ATP Depletion Assay
Compounds to be tested are dissolved in DMSO and directly distributed into a black 384-well plate at 1.25 μL per well. To start the reaction, 25 μL of 10 nM PI3 kinase and 5 μg/mL 1-alpha-phosphatidylinositol (PI) are added into each well followed by 25 μL of 2 μM ATP. The reaction is performed until approx 50% of the ATP is depleted, and then stopped by the addition of 25 μL of KinaseGlo solution purchased from Promega. The stopped reaction is incubated for 5 minutes and the remaining ATP is then detected via luminescence.

[1] = ATP depletion assay, Biological Method 1, read-out: PI3 Kinase Alpha, IC50
[2] = ATP depletion assay, read-out: PI3 Kinase Alpha, IC50

Chain of PI3 kinase alpha (P42336 whole entry): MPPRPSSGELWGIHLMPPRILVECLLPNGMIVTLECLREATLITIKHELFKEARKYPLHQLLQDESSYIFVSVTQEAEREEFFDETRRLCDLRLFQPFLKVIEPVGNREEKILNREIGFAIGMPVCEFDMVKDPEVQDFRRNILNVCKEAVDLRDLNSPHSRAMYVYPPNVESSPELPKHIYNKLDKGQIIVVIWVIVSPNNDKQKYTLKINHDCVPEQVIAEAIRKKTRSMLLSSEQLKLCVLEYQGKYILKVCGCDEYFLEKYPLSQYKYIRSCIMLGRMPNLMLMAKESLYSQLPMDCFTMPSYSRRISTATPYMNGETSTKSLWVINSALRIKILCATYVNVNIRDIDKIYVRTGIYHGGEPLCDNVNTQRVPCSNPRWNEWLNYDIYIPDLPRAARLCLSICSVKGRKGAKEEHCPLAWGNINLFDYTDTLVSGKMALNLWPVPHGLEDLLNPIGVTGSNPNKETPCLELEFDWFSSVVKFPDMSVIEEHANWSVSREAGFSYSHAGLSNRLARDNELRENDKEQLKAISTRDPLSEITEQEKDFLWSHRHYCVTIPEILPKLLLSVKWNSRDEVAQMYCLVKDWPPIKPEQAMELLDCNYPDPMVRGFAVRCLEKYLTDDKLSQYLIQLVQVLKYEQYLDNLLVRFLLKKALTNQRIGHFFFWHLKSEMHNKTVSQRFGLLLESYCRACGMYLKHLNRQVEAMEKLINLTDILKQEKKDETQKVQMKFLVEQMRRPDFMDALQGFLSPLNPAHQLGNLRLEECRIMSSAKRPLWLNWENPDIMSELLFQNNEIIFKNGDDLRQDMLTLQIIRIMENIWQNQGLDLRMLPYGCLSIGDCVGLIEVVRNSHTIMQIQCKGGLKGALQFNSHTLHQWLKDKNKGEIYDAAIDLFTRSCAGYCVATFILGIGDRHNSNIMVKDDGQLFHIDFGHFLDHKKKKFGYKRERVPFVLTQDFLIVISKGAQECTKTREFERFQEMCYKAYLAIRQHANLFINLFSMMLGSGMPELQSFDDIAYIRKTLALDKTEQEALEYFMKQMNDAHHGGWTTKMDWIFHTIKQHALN
Chain of PI3 kinase alpha (P27986 whole entry partner): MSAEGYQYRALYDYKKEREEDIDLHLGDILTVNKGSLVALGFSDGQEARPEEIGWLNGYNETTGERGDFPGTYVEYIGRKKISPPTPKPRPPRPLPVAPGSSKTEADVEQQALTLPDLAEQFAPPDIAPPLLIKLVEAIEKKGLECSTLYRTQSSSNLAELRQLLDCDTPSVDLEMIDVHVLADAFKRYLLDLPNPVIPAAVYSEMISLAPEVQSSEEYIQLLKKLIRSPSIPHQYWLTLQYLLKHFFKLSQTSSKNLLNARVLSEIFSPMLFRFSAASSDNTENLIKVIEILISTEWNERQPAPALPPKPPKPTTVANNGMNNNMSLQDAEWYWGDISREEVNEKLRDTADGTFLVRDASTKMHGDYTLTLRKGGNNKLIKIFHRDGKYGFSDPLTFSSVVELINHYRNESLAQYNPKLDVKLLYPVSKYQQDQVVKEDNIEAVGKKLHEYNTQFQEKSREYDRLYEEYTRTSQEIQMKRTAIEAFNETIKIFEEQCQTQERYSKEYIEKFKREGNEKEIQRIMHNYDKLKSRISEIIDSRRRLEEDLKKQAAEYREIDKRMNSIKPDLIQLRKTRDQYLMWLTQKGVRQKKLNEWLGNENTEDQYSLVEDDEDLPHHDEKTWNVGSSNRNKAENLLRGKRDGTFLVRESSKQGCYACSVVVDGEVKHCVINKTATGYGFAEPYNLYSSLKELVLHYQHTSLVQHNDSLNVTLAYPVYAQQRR

IC50 [1] [µM]	IC50 [2] [µM]	SMILES	further results
< 10	–	Nc1ccc(-c2cc(Sc3ncc[nH]3)nc(N3CCOCC3)n2)cn1 [Compound 296]	–
< 1	–	Nc1ncc(-c2cc(Nc3cnc4ccccc4c3)nc(N3CCOCC3)n2)c(OCCN2CCNCC2)n1 [Compound 272]	–
–	< 1	Nc1cc(C(F)(F)F)c(-c2cc(O[C@@H]3CCN(C(=O)c4ccccc4)C3)nc(N3CCOCC3)n2)cn1 [Compound 536]	–
–	< 10	Nc1ncc(-c2nc(N3CCOCC3)ncc2C(=O)NCC2CC2)cn1 [Compound 419]	–
–	< 1	Nc1ccc(-c2cc(NCc3ccccn3)nc(N3CCOCC3)n2)cn1 [Compound 444]	–
< 10	–	CC(=O)Nc1cnc(N2CCOCC2)nc1-c1ccc(N)nc1 [Compound 257]	–
< 1	–	Nc1ccc(-c2cc(Nc3ccccc3C(F)(F)F)nc(N3CCOCC3)n2)cn1 [Compound 379]	–
< 10	–	Nc1ccc(-c2cc(NC3CCCCC3)nc(N3CCOCC3)n2)cn1 [Compound 373]	–
–	< 1	Nc1ccc(-c2cc(NCc3ccncc3)nc(N3CCOCC3)n2)cn1 [Compound 443]	–
–	< 1	Nc1ccc(-c2cc(NCc3cccnc3)nc(N3CCOCC3)n2)cn1 [Compound 445]	–
< 1	–	Nc1ccc(-c2cc(-c3ccc(F)nc3)nc(N3CCOCC3)n2)cn1 [Compound 228]	–
–	< 10	Nc1ccc(-c2cc(-c3cccnc3N3CCN(CCO)CC3)nc(N3CCOCC3)n2)cn1 [Compound 498]	–
–	< 10	CN(C)c1ncccc1-c1cc(-c2ccc(N)nc2)nc(N2CCOCC2)n1 [Compound 504]	–
–	< 1	CS(=O)(=O)Nc1cc(N)ncc1-c1cc(Nc2cnc3ccccc3c2)nc(N2CCOCC2)n1 [Compound 492]	–
–	< 1	Nc1ccc(-c2cc(Nc3cnc4c(Cl)ccc(OCCN5CCCC5=O)c4c3)nc(N3CCOCC3)n2)cn1 [Compound 493]	–
< 10	–	Nc1ncc(-c2cc(Nc3cnc4ccccc4c3)nc(N3CCOCC3)n2)cc1S(N)(=O)=O [Compound 222]	–
–	< 10	CS(=O)(=O)Nc1cc(-c2ccc(N)nc2)nc(N2CCOCC2)n1 [Compound 510]	–
–	< 10	CN(C)CCCCNc1cc(-c2cnc(N)nc2)nc(N2CCOCC2)n1 [Compound 517]	–
< 10	–	N#Cc1cc(-c2cc(Nc3cnc4ccccc4c3)nc(N3CCOCC3)n2)cnc1N [Compound 366]	–
–	< 1	Nc1cc(C(F)(F)F)c(-c2cc(OC3CCNCC3)nc(N3CCOCC3)n2)cn1 [Compound 459]	–
< 10	–	Nc1ccc(-c2cc(C(=O)N3CCNCC3)nc(N3CCOCC3)n2)cn1 [Compound 224]	–
< 10	–	Nc1ccc(-c2cc(Sc3nc[nH]n3)nc(N3CCOCC3)n2)cn1 [Compound 292]	–
–	< 10	CN(C)CCNC(=O)c1cnc(N2CCOCC2)nc1-c1cnc(N)nc1 [Compound 420]	–
–	< 1	Nc1ncc(-c2cc(N[C@@H]3CCC[C@H]3OCc3ccccc3)nc(N3CCOCC3)n2)cn1 [Compound 398]	–
< 10	–	Nc1ccc(-c2cc(N3CCNC(=O)C3)nc(N3CCOCC3)n2)cn1 [Compound 376]	–
–	< 10	Nc1ccc(-c2nc(N3CCOCC3)ncc2C(F)(F)F)cn1 [Compound 473]	–

IC50 [1] [µM]	IC50 [2] [µM]	SMILES	further results
< 1	–	Nc1ccc(-c2cc(N3CCOC(c4cccnc4)C3)nc(N3CCOCC3)n2)cn1 (stereo not shown) [Compound 340]	–
–	< 10	Nc1ccc(-c2cc(NCCc3ccccn3)nc(N3CCOCC3)n2)cn1 [Compound 433]	–
< 1	–	Nc1ccc(-c2cc(NC(=O)C3CCCCC3)nc(N3CCOCC3)n2)cn1 [Compound 298]	–
–	< 1	Nc1ccc(-c2cc(Nc3cnc4ccc(OC(F)(F)F)cc4c3)nc(N3CCOCC3)n2)cn1 [Compound 496]	–
< 10	–	Cn1cnnc1Sc1cc(-c2ccc(N)nc2)nc(N2CCOCC2)n1 [Compound 293]	–
< 1	–	Nc1ccc(-c2cc(Nc3ccccc3-n3ccnc3)nc(N3CCOCC3)n2)cn1 [Compound 355]	–
< 1	–	Nc1ncc(-c2cc(N[C@H]3CCCC[C@@H]3OCc3ccccc3)nc(N3CCOCC3)n2)cn1 [Compound 395]	–
–	< 1	CS(=O)(=O)c1cccc(-c2cc(-c3cnc(N)cc3-c3nn[nH]n3)nc(N3CCOCC3)n2)c1 [Compound 414]	–
–	< 10	Cc1c(-c2cnc(N)nc2)nc(N2CCOCC2)nc1-c1ccccc1S(=O)(=O)NC(C)(C)C [Compound 547]	–
–	< 1	CC(C)C(=O)N1CC[C@@H](Oc2cc(-c3cnc(N)cc3C(F)(F)F)nc(N3CCOCC3)n2)C1 [Compound 537]	–
< 1	–	Nc1ccc(-c2cc(-c3c[nH]nn3)nc(N3CCOCC3)n2)cn1 [Compound 310]	–
< 10	–	Nc1ccc(-c2cc(Nc3cc4ccccc4nc3OCCN3CCCC3)nc(N3CCOCC3)n2)cn1 [Compound 286]	–
–	< 1	CC(C)(C)OC(=O)N1CCC[C@@H](Oc2cc(-c3cnc(N)cc3C(F)(F)F)nc(N3CCOCC3)n2)C1 [Compound 21]	–
< 1	–	CC(=O)N1CCc2cccc(Nc3cc(-c4ccc(N)nc4)nc(N4CCOCC4)n3)c21 [Compound 354]	–
–	< 1	Nc1cc(C(F)(F)F)c(-c2cc(N3CCOCC3c3ccccc3)nc(N3CCOCC3)n2)cn1 (stereo not shown) [Compound 486]	–
< 10	–	CN(C)c1cc(-c2ccc(N)nc2)nc(N2CCOCC2)n1 [Compound 370]	–
–	< 10	Nc1ncc(-c2nc(N3CCOCC3)ncc2C(=O)NC2CCOCC2)cn1 [Compound 426]	–
–	< 1	CC(=O)N1CC[C@@H](Oc2cc(-c3cnc(N)cc3C(F)(F)F)nc(N3CCOCC3)n2)C1 [Compound 23]	–
< 1	–	Nc1cc(C(F)(F)F)c(-c2nc(N3CCOCC3)nc(N3CCOCC3)c2Cl)cn1 [Compound 312]	–
–	< 10	COCCNC(=O)c1cnc(N2CCOCC2)nc1-c1cnc(N)nc1 [Compound 424]	–
–	< 10	CC(C)N1CCN(c2nc3ccccc3cc2-c2cc(-c3ccc(N)nc3)nc(N3CCOCC3)n2)CC1 [Compound 502]	–
< 1	–	Nc1ccc(-c2cc(Nc3cnccc3C(F)(F)F)nc(N3CCOCC3)n2)cn1 [Compound 385]	–
< 1	–	CN(C)CCOc1ccc(-c2cc(-c3ccc(N)nc3)nc(N3CCOCC3)n2)cn1 [Compound 225]	–
–	< 1	Nc1cc(C(F)(F)F)c(-c2cc(N3CCOCC3c3ccc(F)cc3)nc(N3CCOCC3)n2)cn1 (stereo not shown) [Compound 485]	–
–	< 1	CC(C)N1CCN(c2ccc(-c3cc(-c4ccc(N)nc4)nc(N4CCOCC4)n3)cn2)CC1 [Compound 507]	–
–	< 1	Nc1ncc(-c2cc(O[C@@H]3CCCN(C(=O)c4ccc(F)cc4)C3)nc(N3CCOCC3)n2)c(N)n1 [Compound 525]	–

IC50 [1] [µM]	IC50 [2] [µM]	SMILES	further results
–	< 10	Nc1ccc(-c2cc(NCCc3ccncc3)nc(N3CCOCC3)n2)cn1 [Compound 435]	–
–	< 1	CC(C)OC(=O)N1CC[C@@H](Oc2cc(-c3cnc(N)cc3C(F)(F)F)nc(N3CCOCC3)n2)C1 [Compound 538]	–
–	< 10	Nc1ncc(-c2nc(N3CCOCC3)ncc2C(=O)N2CCOCC2)cn1 [Compound 429]	–
< 10	–	Nc1ccc(-c2cc(NC3CCOCC3)nc(N3CCOCC3)n2)cn1 [Compound 374]	–
< 1	–	Nc1ccc(-c2cc(Nc3ccc4c(c3)NC(=O)CO4)nc(N3CCOCC3)n2)cn1 [Compound 381]	–
< 1	–	Nc1cc(C(F)(F)F)c(-c2cc(N3CCOC4(CCCC4)C3)nc(N3CCOCC3)n2)cn1 [Compound 319]	–
–	< 1	Nc1ccc(-c2cc(C(F)(F)F)nc(N3CCOCC3)n2)cn1 [Compound 471]	–
–	< 10	Nc1ncc(-c2nc(N3CCOCC3)ncc2C(=O)O)cn1 [Compound 430]	–
< 1	–	Nc1ccc(-c2cc(NC(=O)c3cccnc3)nc(N3CCOCC3)n2)cn1 [Compound 297]	–
< 10	–	CN(c1cc(-c2ccc(N)nc2)nc(N2CCOCC2)n1)C1CCCCC1 [Compound 372]	–
< 1	–	Nc1ccc(-c2cc(Nc3cccc4c3OCCO4)nc(N3CCOCC3)n2)cn1 [Compound 389]	–
< 1	–	CS(=O)(=O)c1ccccc1Nc1cc(-c2cnc(N)cc2C(F)(F)F)nc(N2CCOCC2)n1 [Compound 240]	–
< 1	–	CC(=O)Nc1cnc(N2CCOCC2)nc1-c1cnc(N)nc1 [Compound 256]	–
< 10	–	CN1CCC(Oc2ncccc2-c2cc(-c3ccc(N)nc3)nc(N3CCOCC3)n2)C1 (stereo not shown) [Compound 288]	–
< 1	–	CN1CCC(Oc2ccc(-c3cc(-c4ccc(N)nc4)nc(N4CCOCC4)n3)cn2)CC1 [Compound 226]	–
–	–	Cc1c(Nc2cnc3ccccc3c2)nc(N2CCOCC2)nc1-c1cnc(N)cc1C(F)(F)F [Compound 469]	IC50: < 1 µM
< 1	–	NC(=O)c1cc(-c2cnc(N)nc2)nc(N2CCOCC2)n1 [Compound 229]	–
< 1	–	Nc1ncc(-c2cc(N3CCC(C(F)(F)F)CC3)nc(N3CCOCC3)n2)cn1 [Compound 391]	–
–	< 1	Cc1nc(N)ncc1-c1cc(Cl)nc(N2CCOCC2)n1 [Compound 479]	–
–	< 1	Nc1cc(C(F)(F)F)c(-c2cc(O[C@@H]3CCN(C(=O)OCc4ccccc4)C3)nc(N3CCOCC3)n2)cn1 [Compound 535]	–
< 1	–	Nc1ccc(-c2cc(-c3nnn[nH]3)nc(N3CCOCC3)n2)cn1 [Compound 309]	–
< 10	–	CC(=O)Nc1ccccc1Nc1cc(-c2ccc(N)nc2)nc(N2CCOCC2)n1 [Compound 353]	–
–	< 1	Nc1cc(C(F)(F)F)c(-c2cc(N3CCC(F)CC3)nc(N3CCOCC3)n2)cn1 [Compound 487]	–
< 10	–	Nc1ccc(-c2cc(N3CCOC(C(=O)O)C3)nc(N3CCOCC3)n2)cn1 (stereo not shown) [Compound 339]	–
–	< 10	Nc1ccc(-c2cc(NCCc3cccnc3)nc(N3CCOCC3)n2)cn1 [Compound 434]	–
< 1	–	Nc1ccc(-c2cc(Nc3cccc4cn[nH]c34)nc(N3CCOCC3)n2)cn1 [Compound 346]	–

SMILES	IC50 [1] [µM]	IC50 [2] [µM]	further results
Nc1ncc(-c2cc(N[C@H]3CN4CCC3CC4)nc(N3CCOCC3)n2)cn1 [Compound 519]	–	< 1	–
